# Assay results published in patent US8383814B2, “Substituted tetrahydropyran spiro pyrrolidinone and piperidinone, preparation and therapeutic use thereof” (Sanofi, priority 2008, dated 2013).
# What was measured:
# [1] = molecular target: T1, rhesus (Macacca Mulatta) H3 receptor (Macaca mulatta, UniProt Q865E1); assay: Rhesus H3 radioligand binding assay ([3H]-methylhistamine displacement, WGA SPA beads); set-up: species or system rhesus monkey (Macacca Mulatta); settings: [3H]-methylhistamine 2 nM; membranes of Flp-In T-REx 293 cells expressing rhesus H3; Cheng-Prusoff
# T1 construct: pcDNA5/FRT/TO (Invitrogen) containing the rhesus monkey (Macacca Mulatta) 445 amino acid H3 receptor
# Protocol: (§1) Rhesus H3 membranes were prepared from the Flp-In T-REx 293 Cell Line (Invitrogen) stably transfected with pcDNA5/FRT/TO (Invitrogen) containing the rhesus monkey (Macacca Mulatta) 445 amino acid H3 receptor. (Genbank #AY231164). Stably transfected cultures were amplified in tissue culture flasks by standard tissue culture methods and induced to express rhesus H3 by exposure to 500 ng/ml tetracycline (Cellgro) for 24 hours. After induction, cells were dissociated from flasks utilizing Cell Stripper (Cellgro). Cells were centrifuged (1K×g, 5 min) and pellet frozen in an ethanol-dry ice bath to disrupt cell membranes. Frozen cell pellet was re-suspended in 5 mM HEPES (pH 7.4, Invitrogen) at 10 ml/1000 cm2 of harvested cells. The cell suspension was drawn through an 18 gauge needle (2-3×) followed by a 23 gauge needle (2-3×) to further disrupt cell membranes. The cell suspension was centrifuged (40K×g, 30 min). Cell membrane pellet was re-suspended in 5 mM HEPES (pH 7.4, Invitrogen) at a final protein concentration of 10 mg/ml. Rhesus H3 membranes were stored under liquid nitrogen prior to use in [3H]-Methylhistamine and GTP S radioligand binding assays.
# Rhesus H3 radioligand binding assay was performed using rhesus H3 receptor membranes (prepared as described above), [3H]-Methylhistamine (Perkin Elmer) and WGA SPA beads (wheat germ agglutinin scintillation proximity assay) beads (Amersham). The assay was performed in 96-well Opti-Plates (Packard). Each reaction contained 50 μl rhesus H3 membranes (20-30 μg total protein), 50 μl WGA SPA beads (0.1 μg) and 50 μl of 83 Ci/mmol [^3H]-Methylhistamine (final concentration 2 nM) and 50 μl of tested compound. The compounds of this invention and/or vehicle were diluted with binding buffer from 10 mM DMSO stocks. Assay plates were sealed with TopSeal (Perkin Elmer) and mixed on shaker (25° C., 1 hour). Assay plates were read on TopCount scintillation counter (Packard). Results were analyzed by Hill transformation and Ki values were determined by Cheng-Prusoff equation.
# rhesus H3 receptor = assay: GTPγS radioligand binding assay: inhibition of rhesus H3 constitutive functional activity in cell membranes (inverse agonism); assay type: biochemical, rhesus monkey (Macacca Mulatta); set-up: concentration or dose not given beside the values; settings: negative value = below basal level
# Protocol: as §1
# T1 sequence (Q865E1 1-445): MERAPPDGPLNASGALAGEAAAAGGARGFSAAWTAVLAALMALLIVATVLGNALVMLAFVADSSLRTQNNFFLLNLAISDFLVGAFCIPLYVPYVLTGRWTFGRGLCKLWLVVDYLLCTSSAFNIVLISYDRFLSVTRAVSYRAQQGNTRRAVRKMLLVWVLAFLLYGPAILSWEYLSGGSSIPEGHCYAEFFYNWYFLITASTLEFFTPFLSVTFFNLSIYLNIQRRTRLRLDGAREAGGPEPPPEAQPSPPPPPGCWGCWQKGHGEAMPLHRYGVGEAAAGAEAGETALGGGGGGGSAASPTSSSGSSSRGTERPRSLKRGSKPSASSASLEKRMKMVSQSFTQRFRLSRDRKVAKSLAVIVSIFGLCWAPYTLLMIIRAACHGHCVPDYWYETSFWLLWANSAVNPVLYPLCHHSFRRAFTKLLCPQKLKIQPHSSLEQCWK
SMILES,Ki [1] [nM],Inverse Agonism: % inhibition of Basal GTPγS binding in Rhesus H3 (rhesus H3 receptor) [%]
"C[C@@H]1CCCN1[C@H]1CCN(c2ccc(N3CCCC4(CCOCC4)C3=O)cc2)C1 [Example 34, 2-[4-((2R,3′S)-2-Methyl-[1,3′]bipyrrolidinyl-1′-yl)-phenyl]-9-oxa-2-aza-spiro[5.5]undecan-1-one]",1.7,−12
"CCC1CCCN1C1CCN(c2ccc(N3CCC4(CCOCC4)C3=O)c(F)c2)C1 (centres unmarked) [Example 7, 2-[4-(2-Ethyl-[1,3′]bipyrrolidinyl-1′-yl)-2-fluoro-phenyl]-8-oxa-2-aza-spiro[4.5]decan-1-one]",5.2,−35
"C[C@H]1CCCN1[C@H]1CCN(c2ccc(N3CCCC4(CCOCC4)C3=O)c(F)c2)C1 [Example 27, 2-[2-Fluoro-4-((2S,3′S)-2-methyl-[1,3′]bipyrrolidinyl-1′-yl)-phenyl]-9-oxa-2-aza-spiro[5.5]undecan-1-one]",0.7,−20
"CC(C)C1CCCN1C1CCN(c2ccc(N3CCC4(CCOCC4)C3=O)cc2)CC1 (centres unmarked) [Example 13, 2-{4-[4-(2-Isopropyl-pyrrolidin-1-yl)-piperidin-1-yl]-phenyl}-8-oxa-2-aza-spiro[4.5]decan-1-one]",16,−22
Cc1cc(N2CC[C@@H](N3CCC[C@@H]3C)C2)ccc1N1CCC2(CCOCC2)C1=O [Example 30],4.3,−29
"CC(C)C1CCCN1C1CCN(c2ccc(N3CCC4(CCOCC4)C3=O)c(C(F)(F)F)c2)CC1 (centres unmarked) [Example 19, 2-{4-[4-(2-Isopropyl-pyrrolidin-1-yl)-piperidin-1-yl]-2-trifluoromethyl-phenyl}-8-oxa-2-aza-spiro[4.5]decan-1-one]",100,−8
"C[C@H]1CCCN1C1CCN(c2ccc(N3CCC4(CCOCC4)C3=O)c(C(F)(F)F)c2)CC1 [Example 21, 2-{4-[4-((2S,3′S)-2-Methyl-pyrrolidin-1-yl)-piperidin-1-yl]-2-trifluoromethyl-phenyl}-8-oxa-2-aza-spiro[4.5]decan-1-one]",0.42,−19
"Cc1cc(N2CC[C@H](N3CCC[C@@H]3C)C2)ccc1N1CCCC2(CCOCC2)C1=O [Example 2, 2-[2-Methyl-4-((2S,3′S)-2-methyl-[1,3′]bipyrrolidinyl-1′-yl)-phenyl]-9-oxa-2-aza-spiro[5.5]undecan-1-one]",0.38,−9
"C[C@H]1CCCN1[C@H]1CCN(c2ccc(N3CCC4(CCOCC4)C3=O)c(F)c2)C1 [Example 11, 2-[2-Fluoro-4-((2S,3′S)-2-methyl-[1,3′]bipyrrolidinyl-1′-yl)-phenyl]-8-oxa-2-aza-spiro[4.5]decan-1-one]",0.45,−11
"CC(C)C1CCCN1C1CCN(c2ccc(N3CCC4(CCOCC4)C3=O)c(F)c2)C1 (centres unmarked) [Example 8, 2-[2-Fluoro-4-(2-isopropyl-[1,3′]bipyrrolidinyl-1′-yl)-phenyl]-8-oxa-2-aza-spiro[4.5]decan-1-one]",76,−22
"C[C@H]1CCCN1[C@H]1CCN(c2ccc(N3CCCC4(CCOCC4)C3=O)cc2F)C1 [Example 17, 2-[3-Fluoro-4-(2-methyl-[1,3′]bipyrrolidinyl-1′-yl)-phenyl]-9-oxa-2-aza-spiro[5.5]undecan-1-one]",2.5,−16
"Cc1cc(N2CC[C@H](N3CCC[C@@H]3C)C2)ccc1N1CCC2(CCOCC2)C1=O [Example 1, 2-[2-Methyl-4-((2S,3′S)-2-methyl-[1,3′]bipyrrolidinyl-1′-yl)-phenyl]-8-oxa-2-aza-spiro[4.5]decan-1-one]",0.93,−25
Cc1cc(N2CC[C@@H](N3CCC[C@@H]3C)C2)ccc1N1CCCC2(CCOCC2)C1=O [Example 33],1.4,−19
